From patent publication US20230048888A1, “USE OF TRIAZOLOTRIAZINE DERIVATIVE IN TREATMENT OF DISEASES” (ZHEJIANG VIMGREEN PHARMACEUTICALS, LTD., priority 2019, published 2023)
Values after ≈ are worked out from the molar mass of the structure shown. Read-outs that look alike come from different tables or passages of the source.

Assays:
adenosine receptor A2b = molecular target: T1, adenosine receptor A2b (Homo sapiens, UniProt P29275); assay: cAMP experiment on Gs-coupled adenosine receptor A2b (HEK293); assay type: cell-based; conditions: cAMP accumulation, NECA EC80; read-out: IC50 (nM) HEK293 cells (ADORA2B)
T1 construct: host or cells: HEK293
T1 sequence (P29275 1-332): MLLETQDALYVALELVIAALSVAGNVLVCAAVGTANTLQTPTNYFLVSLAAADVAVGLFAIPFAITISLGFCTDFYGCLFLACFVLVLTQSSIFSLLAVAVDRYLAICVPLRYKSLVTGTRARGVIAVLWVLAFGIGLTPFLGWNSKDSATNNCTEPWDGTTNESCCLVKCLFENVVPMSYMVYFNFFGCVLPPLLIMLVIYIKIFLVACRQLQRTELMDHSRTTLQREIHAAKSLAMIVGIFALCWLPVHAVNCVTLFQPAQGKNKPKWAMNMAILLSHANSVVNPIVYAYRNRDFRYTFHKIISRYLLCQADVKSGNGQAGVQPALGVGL
Protocol: In this experiment, a HEK293 cell line stably expressing the adenosine receptor A2b was taken as a study object (PerkinElmer, ES-013-C) for the experiment. […] A solution system for cell inoculation was 10 μL of cAMP experimental buffer. […] Similarly, 10 mM test compound was also subjected to 3-fold gradient dilution in 100% DMSO. The gradient-diluted reference compound and test compound were added to a 384-well compound plate (Labcyte, PP-0200). 10 nL of the gradient-diluted reference agonist NECA per well was transferred to a test plate containing cells by using Echo (Labcyte, 550), and the test plate was incubated for 30 minutes at 37° C. 5 μL of Eu-cAMP tracer working solution and 5 μL of ULight-anti-cAMP working solution (PerkinElmer, TRF0263) were added to the test plate per well, and the test plate was incubated for 30 minutes at 25° C. […] 1000×EC80 NECA was prepared with 100% DMSO. […] The test plate was incubated for 20 minutes at 25° C., and then 10 nL of the 1000×EC80 NECA per well was transferred to the test plate. The test plate was incubated for 30 minutes at 37° C. 5 μL of Eu-cAMP tracer working solution and 5 μL of ULight-anti-cAMP working solution were added to the test plate per well, and the test plate was incubated for 30 minutes at 25° C. The fluorescence signal ratio of each well in the test plate was read, and the IC50 value of the compound was calculated by using the output data of the reference inhibitor and test compound and the concentration of the compound.

[1] = Pharmacokinetics of test compounds in SD rats (15.2; IV and PO, mixed administration); assay type: in vivo; conditions: for Cl_pred / AUC(0-t) / Cmax / half-life: IV; for AUC(0-t) / Cmax / half-life: male, Sprague-Dawley, rat, plasma; for half-life: read-out: T½ (converted)
adenosine receptors A2A = molecular target: T2, adenosine receptors A2A (Homo sapiens, UniProt P29274); assay: TR-FRET-based cAMP accumulation assay in hADORA2A-HEK293 cells; assay type: cell-based; conditions: NECA at EC80, hADORA2A-HEK293, read-out: A2AR activity (IC50)
T2 construct: expressed in transfected cells; host or cells: HEK293 (hADORA2A-HEK293)
Protocol: The inhibitory effects of the test compounds on the adenosine receptors A2A were evaluated by TR-FRET-based cAMP accumulation assay. The method included, in HEK293 cells (hADORA2A-HEK293) expressing A2AR, the production of cAMP stimulated by NECA and the inhibitory effect of A2A receptor antagonists on cAMP. All cells were cultured in a complete medium at 37° C. in the presence of 5% CO2. After being digested with trypsin, the cells were collected by centrifugation at 200 g for 5 minutes. The cells were resuspended in a fresh complete medium, and then the cell viability was counted by a trypan blue exclusion method. […] The cells were diluted with Hank's buffer solution containing HEPES (5 mM), BSA stabilizer (0.1%) and Rolipram (10 μM), then added to a 384-well white non-transparent plate (cells/well, 10 μl/well), and incubated with the test compound at an appropriate concentration (11 concentrations) for 20 minutes at room temperature. Then, the A2A receptor agonist NECA (final concentration=EC80, which was determined in the same experiment performed earlier) was added to the sample, and the sample was incubated again at 37° C. for 30 minutes.
An inhibition rate (%) was calculated according to the following formula, and an IC50 value was calculated from a concentration-inhibition (%) curve after log conversion.
A curve corresponding to the dose was fitted by using XLfit software and the IC50 was determined.

[2] = Solubility in biological vehicles (SGF, FaSSIF, FeSSIF) at 37° C., HPLC; assay type: physicochemical; conditions: for Solubility / solubility at 2 h: 2 h; for solubility at 0.5 h / solubility at 2 h: 37 °C, thermodynamic from solid
Protocol: An Agilent HPLC 1260 series instrument was used in an HPLC analysis method. The HPLC method for testing solubility and stability was as follows:
In the experiment, the solubilities of the free-base crystal form and the acetate crystal form were determined at 37° C. in biological vehicles (simulated gastric fluid (SGF), fasted state stimulated intestinal fluid (FaSSIF) and fed state stimulated intestinal fluid (FeSSIF)). 3 mg of a sample was added to a sample bottle, and 1 mL of biologically relevant vehicle was added to the same. The suspension was shaken at a speed of 500 rpm at 37° C.

[3] = fasted state simulated intestinal fluid (FaSSIF), fassif
[4] = fed state simulated intestinal fluid (FeSSIF), fessif
[5] = simulated gastric fluid (SGF), simulated gastric fluid, SGF

T2 sequence (P29274 whole entry): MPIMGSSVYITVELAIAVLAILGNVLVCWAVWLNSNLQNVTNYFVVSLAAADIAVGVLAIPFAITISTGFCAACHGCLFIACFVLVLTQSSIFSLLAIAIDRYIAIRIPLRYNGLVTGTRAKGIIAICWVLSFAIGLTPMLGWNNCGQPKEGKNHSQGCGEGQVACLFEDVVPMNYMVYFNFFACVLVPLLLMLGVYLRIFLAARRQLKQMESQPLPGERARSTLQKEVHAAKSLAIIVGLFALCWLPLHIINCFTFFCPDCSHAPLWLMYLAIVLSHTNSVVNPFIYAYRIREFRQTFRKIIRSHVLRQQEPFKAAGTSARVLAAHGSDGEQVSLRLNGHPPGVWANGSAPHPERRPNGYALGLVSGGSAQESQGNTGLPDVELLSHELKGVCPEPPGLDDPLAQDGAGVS

SMILES | IC50 (adenosine receptor A2b) [nM] | Cl_pred ([1]; 1 mg/kg) [mL/min/kg] | AUC(0-t) ([1]; 1 mg/kg) [ng·h/mL] | Cmax ([1]; 1 mg/kg) [ng/mL] | half-life ([1]; 1 mg/kg) [min] | IC50 (adenosine receptors A2A) [nM] | Solubility ([2]; SGF, listed as Free base) [µg/mL] | solubility at 0.5 h [2, 3] [µg/mL] | solubility at 2 h [2, 3] [µg/mL] | solubility at 0.5 h [2, 4] [µg/mL] | solubility at 2 h [2, 4] [µg/mL] | solubility at 0.5 h [2, 5] [µg/mL] | solubility at 2 h [2, 5] [µg/mL] | Cl_pred ([1]; 1.64 mg/kg) [mL/min/kg] | Cl_F_pred ([1]; PO, […]) [mL/min/kg] | F ([1]; PO, […]) [%] | AUC(0-t) ([1]; 1.64 mg/kg) [ng·h/mL] | Cmax ([1]; 1.64 mg/kg) [ng/mL] | half-life ([1]; 1.64 mg/kg) [min] | Solubility ([2]; SGF, acetate) [µg/mL]
COCCNc1ccc(CCNc2nc(N)n3nc(-c4ccco4)nc3n2)cc1 [Compound 27, 2-(furan-2-yl)-N5-(4-((2-methoxyethyl)amino)phenethyl)-[1,2,4]triazolo[1,5-a][1,3,5]triazine-5,7-diamine] | 307 | 188.857 | 83.8 | 139 | 28.2 | 10.6 |  |  |  |  |  |  |  |  |  |  |  |  |  | 
Nc1nc(NCCc2ccc(NC3COC3)cc2)nc2nc(-c3ccco3)nn12 [Compound 22, 2-(furan-2-yl)-N5-(4-(oxetan-3-ylamino)phenethyl)-[1,2,4]triazolo[1,5-a][1,3,5]triazine-5,7-diamine] | 380 |  |  |  |  | 7.07 | 712.1 (≈ 1810 µM) | 3.7 (≈ 9.43 µM) | 4.2 (≈ 10.7 µM) | 7 (≈ 17.8 µM) | 8.8 (≈ 22.4 µM) | 622 (≈ 1590 µM) | 712 (≈ 1810 µM) |  |  |  |  |  |  | 
Cn1nnc(-c2ccc(CCNc3nc(N)n4nc(-c5ccco5)nc4n3)cc2)n1 [Compound 40, N5-(4-(2-methyl-2H-tetrazol-5-yl)phenethyl)-2-(furan-2-yl)-[1,2,4]triazolo[1,5-a][1,3,5]triazine-5,7-diamine] | 343 | 11.834 | 1410 | 1280 | 46.8 | 9.66 |  |  |  |  |  |  |  | 27.0478 | 23.254 | 116.3 | 1010 | 1310 | 31.8 | 
CC(=O)O.Nc1nc(NCCc2ccc(NC3COC3)cc2)nc2nc(-c3ccco3)nn12 [Acetate of Compound 22, 2-(furan-2-yl)-N5-(4-(oxetane-3-ylamino)phenethyl)-[1,2,4]triazolo[1,5-a][1,3,5]triazine-5,7-diamine acetate] |  |  |  |  |  |  |  | 9.3 | 9.9 | 33.1 | 33.8 | > 2890 | > 2890 |  |  |  |  |  |  | >2887
